# Experimental data taken from patent US4367339A, “Substituted N-nitroaniline compounds and inorganic and organic salts thereof useful for enhancing auxiliary branching, canopy flowering and crop yield of plant and as lodging inhibitors therefor” (priority 1980, dated 1983).
# Structures can show the parent of a compound that is named as a salt.
# Legend:
# [1] = test system: soybean (Glycine max) Adelphia; test: Dwarfing and stem stiffening of soybeans (plant height, greenhouse, foliar spray); format: in vivo; conditions: three weeks after spraying
# Protocol: (§1) In the following tests, test compounds are dissolved or dispersed in acetone-water (1:1) mixtures at the final concentration corresponding to the kg/ha rates indicated in the table below. The solution also contains 0.25% v/v colloidal BIOFILM® (a product of Colloidal Products Corp.) which is a mixture of alkyl aryl polyethoxyethanol, free and combined fatty acids, glycol ethers, dialkylbenzene carboxylate and 2-propanol.
# (§2) The plant species used in these tests are barley (Hordeum vulgare), (Mexico) and soybean (Glycine max)Adelphia.
# (§3) The solution or dispersion of the compound under test is sprayed at a rate of 747 l/ha with a moving nozzle along an overhead stationary track. The spray nozzle moves at a constant speed over the plants.
# (§4) The plants are grown in plastic pots, and are well established at the time of treatment. The seedlings of barley are 10 to 20 cm in height, while the seedlings of soybeans are at the second to third trifoliate stage. Plants are watered prior to treatment and then sprayed to provide the kg/ha rate of test compound desired. After spraying the plants are placed on greenhouse benches and watered and fertilized in accordance with normal greenhouse procedures.
# (§5) Three weeks after spraying the plants are measured and harvested. Harvesting is done at the boot stage. All treatments are replicated six times and comparisons are made against untreated controls. Data obtained are reported in Table VI below as percent reduction in plant height over untreated controls.
# [2] = test system: soybeans (Glycine max) Adelphia variety; test: Increasing axillary branching and improving the canopy of broad leaf plants (soybeans); format: in vivo, soybean (Glycine max); conditions: three weeks after treatment
# Excerpt: In these tests seedling soybean plants approximately three weeks old, and grown in plastic pots to the 2nd to 3rd trifoliate stage, are sprayed with solutions or dispersions of test compound prepared as described in Example 7 above. The same spraying apparatus, described in Example 7 above, is used and after spraying the plants are placed on greenhouse benches and watered and fertilized. Three weeks after treatment the plants are examined to determine what effect the application of test compound has had on the axillary branching and canopy development of the treated plants.
# Increased axillary branching and improved canopy are biological responses which are highly advantageous in the growing of ornamental plants. These responses also have advantage in many crops since increased branching may result in the greater production of fruit, while improved canopy tends to shade and suppress the growth of undesirable weeds that compete with the crops for sunlight, water and plant nutrients. Data obtained are reported in table VII below where axillary branching and canopy are reported as percent increase over untreated controls.
# [3] = test system: soybeans (Glycine max) var. Adelphia; test: Increasing flowering of plants (soybeans); format: in vivo, soybean (Glycine max); conditions: three weeks after spraying
# Protocol: In the following tests seedling soybean plants growing in plastic cups are sprayed with aqueous-acetone solutions or dispersions of test compounds when they have reached the 2nd to 3rd trifoliate stage. Test solutions or dispersions are prepared with 0.25 v/v Colloidal BIOFILM® surfactant and sufficient test compound to provide the plants with 0.5, 0.25, 0.125 or 0.06 kg/ha of said compound when the test solutions are sprayed on said plants from an overhead sprayer delivering 747 l/ha of solution.
# After spraying the plants are placed on greenhouse benches and watered and fertilized. Three weeks after spraying the plants are examined and the amount of flowering determined for all plants. Data obtained are reported in the table below as percent increase in flowering over untreated controls.
# From the data reported in Table VIII below it can be seen that the compounds of the present invention applied at rates of from 0.06 to 0.25 kg/ha enhance flowering of treated plant more than 10% over untreated controls. This response is particularly desirable for treatment of flowering varieties of ornamental plants as well as agronomic crops.
# barley (Hordeum vulgare) = test: Dwarfing of barley (plant height, greenhouse, foliar spray); format: in vivo; conditions: three weeks after spraying
# Protocol: as §1, §2, §3, §4, §5
# [4] = rate 0.125 kg/ha, potassium salt
# [5] = rate 0.25 kg/ha, potassium salt
smiles,measurement,setting,value
"O=[N+]([O-])Nc1c(Br)cc(Br)cc1Br [1,1-Dimethylpiperidinium salt with 2,4,6-tribromo-N--aci-nit] [1,1-Dimethylpiperidinium salt with 2,4,6-tribromo-N--aci-nitroaniline]",% Reduction in Plant Height over untreated controls,[1]; rate 0.125 kg/ha,> 25%
same,% Reduction in Plant Height over untreated controls,[1]; rate 0.25 kg/ha,> 35%
same,% Reduction in Plant Height over untreated controls,[1]; rate 0.5 kg/ha,> 50%
same,% Increase in Plant Canopy over untreated controls,[2]; rate 0.125 kg/ha,normal
same,% Increase in axillary branching over untreated controls,[2]; rate 0.125 kg/ha,normal
same,% Increase in axillary branching over untreated controls,[2]; rate 0.25 kg/ha,normal
same,% Increase in Flowering over untreated controls,[3]; rate 0.125 kg/ha,normal
"O=[N+]([O-])Nc1c(Br)cc(Br)cc1Br [2,4,6-Tribromo-N--nitroaniline, potassium salt]",% Reduction in Plant Height over untreated controls,"barley (Hordeum vulgare); rate 0.17 kg/ha, potassium salt",2.7%
same,% Reduction in Plant Height over untreated controls,"barley (Hordeum vulgare); rate 0.50 kg/ha, potassium salt",11.8%
same,% Reduction in Plant Height over untreated controls,"barley (Hordeum vulgare); rate 1.5 kg/ha, potassium salt",2.0%
same,% Reduction in Plant Height over untreated controls,[1]; [4],> 5%
same,% Reduction in Plant Height over untreated controls,[1]; [5],> 5%
same,% Reduction in Plant Height over untreated controls,"[1]; rate 0.5 kg/ha, potassium salt",> 30%
same,% Increase in axillary branching over untreated controls,[2]; [4],normal
same,% Increase in axillary branching over untreated controls,[2]; [5],normal
same,% Increase in Plant Canopy over untreated controls,"[2]; rate 0.5 kg/ha, potassium salt",normal
same,% Increase in Flowering over untreated controls,"[3]; rate 0.5 kg/ha, potassium salt",normal
"O=[N+]([O-])Nc1c(Br)cc(Br)cc1Br [2,4,6-Tribromo-N--nitroaniline, sodium salt]",% Reduction in Plant Height over untreated controls,"barley (Hordeum vulgare); rate 0.17 kg/ha, sodium salt",6.2%
same,% Reduction in Plant Height over untreated controls,"barley (Hordeum vulgare); rate 0.50 kg/ha, sodium salt",13.0%
same,% Reduction in Plant Height over untreated controls,"barley (Hordeum vulgare); rate 1.5 kg/ha, sodium salt",13.0%
same,% Reduction in Plant Height over untreated controls,"[1]; rate 0.125 kg/ha, sodium salt",> 35%
same,% Reduction in Plant Height over untreated controls,"[1]; rate 0.25 kg/ha, sodium salt",> 40%
same,% Increase in Flowering over untreated controls,"[3]; rate 0.5 kg/ha, sodium salt",normal
"O=[N+]([O-])Nc1c(Br)cc(Br)cc1Br [Methyltriphenyl phosphonium salt with 2,4,6-tribromo-N--aci-] [Methyltriphenyl phosphonium salt with 2,4,6-tribromo-N--aci-nitroaniline]",% Reduction in Plant Height over untreated controls,[1]; rate 0.125 kg/ha,> 25%
same,% Reduction in Plant Height over untreated controls,[1]; rate 0.25 kg/ha,> 35%
same,% Reduction in Plant Height over untreated controls,[1]; rate 0.5 kg/ha,> 50%
same,% Increase in Plant Canopy over untreated controls,[2]; rate 0.125 kg/ha,normal
same,% Increase in axillary branching over untreated controls,[2]; rate 0.125 kg/ha,normal
same,% Increase in axillary branching over untreated controls,[2]; rate 0.25 kg/ha,normal
same,% Increase in Flowering over untreated controls,[3]; rate 0.125 kg/ha,normal
